{"source": "patent US12018283B2", "about": "“Method for producing insulin-producing cells” (KATAOKA CORPORATION, priority 2018, dated 2024)", "tested_on": "human fibroblasts", "assay": "Direct induction from human fibroblasts into insulin-producing cells (immunostaining, morphology)", "type": "cell-based", "conditions": "from Table 1 and FIGS. 3 and 4; removal of one compound at a time"}
{"smiles": "O=c1cc(N2CCOCC2)oc2c(-c3ccccc3)cccc12", "note": "[LY294002]", "values": [{"measurement": "importance for conversion into cells expressing insulin", "value": "of particular importance"}]}
{"smiles": "C=C[C@@]1(C)CC(=O)[C@]2(O)[C@@]3(C)[C@@H](O)CCC(C)(C)[C@@H]3[C@H](O)[C@H](OC(C)=O)[C@@]2(C)O1", "note": "[forskolin, Forskolin]", "values": [{"measurement": "importance for conversion into cells expressing insulin", "value": "of particular importance"}]}
